{"source": "paper PMC7118115", "about": "“Tumor-penetrating peptide for systemic targeting of Tenascin-C” (Scientific Reports, 2020)", "key": {"[1]": {"system": "WT-GBM", "test": "In vivo play-off phage auditioning, WT-GBM tumor", "set-up": "species or system murine WT-GBM glioblastoma in athymic nude mice", "settings": "phage-displayed peptide; equimolar mix, i.v. 1 × 10^10 pfu/mouse, 2 h circulation, perfusion; Ion-Torrent sequencing; mean, N = 3 mice", "method": "(§1) Athymic nude mice (Hsd/Athymic Fox1 nu Harlan) were purchased from Envigo (Netherlands) and maintained under standard housing conditions of the Animal Facility of the Institute of Biomedicine and Translational Medicine, University of Tartu (Tartu, Estonia). For orthotropic GBM tumor models, we used NCH421K, P13, and P3 stem cell-like, WT-GBM cells. The individual GBM cells around 2–3 × 10^5 in 3 μL PBS were intracranially implanted into mice brain 2 mm right and 1 mm anterior to the bregma. U87-MG and PC3 subcutaneous models were induced by injecting 2–9 × 10^6 cells in 100 µl PBS subcutaneously into the right flank of 11–15 week old male and female nude mice. All animal experiments were performed in accordance with the procedures approved by the Committee of Animal Experimentation of Estonian Ministry of Agriculture, permits #42 and #48.\n(§2) In vivo play-off was used for internally controlled and competitive systemic phage homing studies in mice bearing tumor xenografts. Phages displaying the candidate TNC-C binding peptides and control peptides were individually amplified and purified by precipitation with PEG-8000 (Sigma-Aldrich, St. Louis, MO, USA), followed by […] gradient ultracentrifugation and dialysis. The phages were pooled at equimolar representation (Table 1 for details) and injected iv at 1 × 10^10 pfu (in 200 µl PBS) in tumor-bearing mice, circulated for 2 h, followed by anesthesia and intracardial perfusion with DMEM. The tumors and organs were collected in lysogeny broth (LB) medium containing 1% NP40, and the tissues were homogenized using a hand-held homogenizer. Phages in the tissue lysate were amplified in E.coli, purified by precipitation with PEG-8000, and DNA was extracted using a DNA extraction kit (High Pure PCR Template Preparation Kit; Roche, Basel, Switzerland). Next-generation sequencing of phage genomic DNA with Ion Torrent system (Thermo Fisher Scientific, Waltham, MA, USA) was used to evaluate the representation of each peptide-phage in the input mixture, in tumors and control organs. The FASTQ data from Ion Torrent were processed using a custom python script that identified the barcodes, constant flanking residues, and extracted the reads of the correct length."}, "[2]": {"system": "U87-MG", "test": "In vivo play-off phage auditioning, U87-MG tumor", "set-up": "species or system human glioblastoma in athymic nude mice", "settings": "phage-displayed peptide; equimolar mix, i.v. 1 × 10^10 pfu/mouse, 2 h circulation, perfusion; Ion-Torrent sequencing; mean, N = 3 mice", "method": "as §1, §2"}, "[3]": {"system": "recombinant TNC-C", "test": "Cell-free phage binding to TNC-C", "set-up": "species or system human", "settings": "individual T7 phage clones; Ni-NTA magnetic beads coated with hexahistidine-tagged TNC-C", "method": "For biopanning on recombinant human TNC-C, we used NNK-encoded CX7C and X7 peptide T7 phage libraries with diversity ~5 × 10^8. Throughout our screens, the selected phages were amplified following plate amplification protocol. The 1st and 4th rounds of biopanning were performed on TNC-C immobilized on Costar 96-Well ELISA plate (#3590, Corning Life Sciences, Tewksbury, MA, USA). Briefly, the multiwell plates were coated with 20 µg/ml recombinant TNC-C in 100 µl of PBS overnight at 4 °C, followed by blocking with 1% bovine serum albumin (BSA) in PBS overnight at 4 °C. The phage library (5 × 10^8 pfu in 100 µl of PBS-BSA) was incubated overnight at 4 °C, followed by 6 washes with PBS containing 1% BSA and 0.1% Tween-20 (washing buffer) to remove background phages, and by phage rescue and amplification in E. coli strain BLT5403 (Novagen, EMD Biosciences, MA, USA)[8]. The subsequent rounds of selection were performed on Ni-NTA Magnetic Agarose Beads (QIAGEN, Hilden, Germany) coated with His-6X tagged TNC-C (30 µg/10 µl beads) at room temperature for 1 h in 400 µl of PBS. The TNC-C beads were washed 3 times with washing buffer, followed by incubation with phages in (5 × 10^8 pfu in 100 µl in washing buffer) at room temperature for 1 h. The background phages were removed by rinsing 6 times with washing buffer, and the bound phages were eluted with 1 ml of PBS containing 500 mM Imidazole and 0.1% NP40.\nThe eluted phages were titered and amplified for a next round of selection. After 5 rounds of selection, peptide-encoding DNA from a set of 48 phage clones was subjected to Sanger sequencing of peptide-encoding phage DNA[18],[22]. For cell-free binding studies with individual phage clones were incubated with Ni-NTA magnetic beads coated with hexahistidine-tagged TNC-C as above. RPARPAR phage binding to NRP-1-coated beads was used as a positive control. Phage clones displaying heptaglycine peptide (GGGGGGG, G7), or insertless phage clones were used as negative controls. […]\nFig. S13. NRP -1-dependent internalization of PL3 -functionalized AgNPs […]\nSupplementary Materials and Methods\nCloning, expression , and purification of TNC-C\nVector Construction. A pF1K (Promega, # FXC00319) derivative plasmid containing full -length cDNA of TNC was used for PCR amplification of cDNA region of TNC-C with Phusion Hot Start II High -Fidelity DNA Polymerase (Thermo Fisher Scientific Inc # F -537L; primer pairs:\n5′- CTCCTCT […] -3′ and 5′ -\nCAGACA CTCGAG TTATCA TGTAACAATCTC -3′ for domain TNC -C. NdeI and XhoI restriction sites underlined ). The fragments were cloned in the pET28a+ plasmid for TNC -C expression as a n N-terminally His -tagged protein .\nExpression and purification of TNC-C. The pET28a+ TNC-C plasmid was used for transformation of E. coli BL21 Rosetta 2 (DE3) pLysS cells (Novagen, #70956). The protein expression was induced by addition of isopropyl β-D-1-thiogalactopyranoside (IPTG) (Sigma, # I6758) to 0.5 mM final concentration and the bacteria were culture d at 18 °C for 16h . Cells were […]\ncollected by centrifugation, resuspended in ice-cold IMAC buffer (25mM Tris-HCl, 400mM NaCl, 25mM imidazole pH 8, containing EDTA-free protease inhibitor cocktail and DNase I) and lysed by sonification (Bandelin Sonopuls HD 2070, Germany). The cleared bacterial lysate was purified using HiTrap IMAC HP column s (GE Healthcare # 17 -0920-05) on ÄKTA purification system (GE Healthcare ), and the eluate was dialyzed against PBS using 3.5 kDa cut - off 3mL Slide-A-Lyzer Dialysis Cassettes (Thermo Scientific #66330). TNC-C concentration was determined by bicinchoninic acid assay (Thermo Scientific #23227) , and the purity of the proteins was assessed by SDS -PAGE. Mass spectrometry and de novo peptide sequencing were used to confirm the size and sequence of the purified proteins . His-tagged NRP-1 b1b2 domain was expressed and purified as described (Teesalu et al., 2009) .\nSingle-chain antibodies: The cDNA sequences encoding TNC-C-G11-scFV were retrieved from […]"}, "[4]": {"system": "PC3", "test": "In vivo play-off phage auditioning, PC3 tumor", "set-up": "species or system prostate carcinoma in athymic nude mice", "settings": "phage-displayed peptide; equimolar mix, i.v. 1 × 10^10 pfu/mouse, 2 h circulation, perfusion; Ion-Torrent sequencing; mean, N = 3 mice", "method": "as §1, §2"}, "[5]": {"system": "P13", "test": "In vivo play-off phage auditioning, P13 tumor", "set-up": "species or system P13 glioblastoma in athymic nude mice", "settings": "phage-displayed peptide; equimolar mix, i.v. 1 × 10^10 pfu/mouse, 2 h circulation, perfusion; Ion-Torrent sequencing; mean, N = 3 mice", "method": "as §1, §2"}, "[6]": {"system": "Norm. brain", "test": "In vivo play-off phage auditioning, normal brain", "set-up": "species or system athymic nude mice", "settings": "phage-displayed peptide; equimolar mix, i.v. 1 × 10^10 pfu/mouse, 2 h circulation, perfusion; Ion-Torrent sequencing; mean, N = 3 mice", "method": "as §2"}, "[7]": {"system": "P3 SCL", "test": "In vivo play-off phage auditioning, P3 SCL tumor", "set-up": "species or system P3 stem cell-like glioblastoma in athymic nude mice", "settings": "phage-displayed peptide; equimolar mix, i.v. 1 × 10^10 pfu/mouse, 2 h circulation, perfusion; Ion-Torrent sequencing; mean, N = 3 mice", "method": "as §1, §2"}}, "data": [{"substance": "RRLVRVA [Clone-35]", "values": [{"measurement": "Representation of phage in tumors, WT-GBM", "setting": "[1]", "result": 1.4, "unit": "fold G7 control phage"}, {"measurement": "Representation of phage in tumors, U87-MG", "setting": "[2]", "result": 0.6, "unit": "fold G7 control phage"}, {"measurement": "TNC-C binding (fold G7 control phage)", "setting": "[3]", "result": 1223, "unit": "fold G7 control phage"}, {"measurement": "Representation of phage in tumors, PC3", "setting": "[4]", "result": 0.9, "unit": "fold G7 control phage"}, {"measurement": "Representation of phage in tumors, P13", "setting": "[5]", "result": 0.4, "unit": "fold G7 control phage"}, {"measurement": "Representation of phage in control brain tissue (Norm. brain)", "setting": "[6]", "result": 0.1, "unit": "fold G7 control phage"}, {"measurement": "Representation of phage in tumors, P3 SCL", "setting": "[7]", "result": 0.3, "unit": "fold G7 control phage"}]}, {"substance": "CAGRGRLVRC [Modified clone-5]", "values": [{"measurement": "Representation of phage in tumors, WT-GBM", "setting": "[1]", "result": 0.9, "unit": "fold G7 control phage"}, {"measurement": "Representation of phage in tumors, U87-MG", "setting": "[2]", "result": 0.1, "unit": "fold G7 control phage"}, {"measurement": "Representation of phage in tumors, PC3", "setting": "[4]", "result": 0.4, "unit": "fold G7 control phage"}, {"measurement": "Representation of phage in tumors, P13", "setting": "[5]", "result": 0.4, "unit": "fold G7 control phage"}, {"measurement": "Representation of phage in control brain tissue (Norm. brain)", "setting": "[6]", "result": 0.0, "unit": "fold G7 control phage"}, {"measurement": "Representation of phage in tumors, P3 SCL", "setting": "[7]", "result": 0.2, "unit": "fold G7 control phage"}]}, {"substance": "CSRRGILRAKPAAALE [Clone-4]", "values": [{"measurement": "Representation of phage in tumors, WT-GBM", "setting": "[1]", "result": 1.5, "unit": "fold G7 control phage"}, {"measurement": "Representation of phage in tumors, U87-MG", "setting": "[2]", "result": 1.1, "unit": "fold G7 control phage"}, {"measurement": "TNC-C binding (fold G7 control phage)", "setting": "[3]", "result": 4889, "unit": "fold G7 control phage"}, {"measurement": "Representation of phage in tumors, PC3", "setting": "[4]", "result": 1.2, "unit": "fold G7 control phage"}, {"measurement": "Representation of phage in tumors, P13", "setting": "[5]", "result": 0.8, "unit": "fold G7 control phage"}, {"measurement": "Representation of phage in control brain tissue (Norm. brain)", "setting": "[6]", "result": 0.1, "unit": "fold G7 control phage"}, {"measurement": "Representation of phage in tumors, P3 SCL", "setting": "[7]", "result": 0.9, "unit": "fold G7 control phage"}]}, {"substance": "VGRVRFSRKLAAALE [Clone-30]", "values": [{"measurement": "Representation of phage in tumors, WT-GBM", "setting": "[1]", "result": 2.5, "unit": "fold G7 control phage"}, {"measurement": "Representation of phage in tumors, U87-MG", "setting": "[2]", "result": 0.7, "unit": "fold G7 control phage"}, {"measurement": "TNC-C binding (fold G7 control phage)", "setting": "[3]", "result": 3702, "unit": "fold G7 control phage"}, {"measurement": "Representation of phage in tumors, PC3", "setting": "[4]", "result": 1.2, "unit": "fold G7 control phage"}, {"measurement": "Representation of phage in tumors, P13", "setting": "[5]", "result": 0.5, "unit": "fold G7 control phage"}, {"measurement": "Representation of phage in control brain tissue (Norm. brain)", "setting": "[6]", "result": 0.1, "unit": "fold G7 control phage"}, {"measurement": "Representation of phage in tumors, P3 SCL", "setting": "[7]", "result": 0.4, "unit": "fold G7 control phage"}]}, {"substance": "AGVGRLRRAKLAAALE [Clone-1]", "values": [{"measurement": "Representation of phage in tumors, WT-GBM", "setting": "[1]", "result": 2.3, "unit": "fold G7 control phage"}, {"measurement": "Representation of phage in tumors, U87-MG", "setting": "[2]", "result": 1.0, "unit": "fold G7 control phage"}, {"measurement": "TNC-C binding (fold G7 control phage)", "setting": "[3]", "result": 3259, "unit": "fold G7 control phage"}, {"measurement": "Representation of phage in tumors, PC3", "setting": "[4]", "result": 1.4, "unit": "fold G7 control phage"}, {"measurement": "Representation of phage in tumors, P13", "setting": "[5]", "result": 0.9, "unit": "fold G7 control phage"}, {"measurement": "Representation of phage in control brain tissue (Norm. brain)", "setting": "[6]", "result": 0.2, "unit": "fold G7 control phage"}, {"measurement": "Representation of phage in tumors, P3 SCL", "setting": "[7]", "result": 0.9, "unit": "fold G7 control phage"}]}, {"substance": "RGRLVRAK [Modified clone-5]", "values": [{"measurement": "Representation of phage in tumors, WT-GBM", "setting": "[1]", "result": 23.8, "unit": "fold G7 control phage"}, {"measurement": "Representation of phage in tumors, U87-MG", "setting": "[2]", "result": 0.5, "unit": "fold G7 control phage"}, {"measurement": "Representation of phage in tumors, PC3", "setting": "[4]", "result": 3.0, "unit": "fold G7 control phage"}, {"measurement": "Representation of phage in tumors, P13", "setting": "[5]", "result": 0.1, "unit": "fold G7 control phage"}, {"measurement": "Representation of phage in control brain tissue (Norm. brain)", "setting": "[6]", "result": 0.2, "unit": "fold G7 control phage"}, {"measurement": "Representation of phage in tumors, P3 SCL", "setting": "[7]", "result": 0.3, "unit": "fold G7 control phage"}]}]}
